# Experimental data: patent publication US8012956B2, “Tropane compounds” (Exelixis, Inc., priority 2007, dated 2011)
# Biological target: HSP90 (Homo sapiens, UniProt P07900)
# Experiment: HSP90 inhibition (HSP90 IC50)
# Assay type: biochemical
row,Compound,IC50
1,CCCc1c(OC)cccc1C(=O)N[C@H]1C[C@H]2CC[C@@H](C1)N2c1ccc(C(=O)NCc2ccccc2)cn1 [6-[3-endo-({[3-(methyloxy)-2-propylphenyl]carbonyl}amino)-8-azabicyclo[3.2.1]oct-8-yl]-N-(phenylmethyl)pyridine-3-carboxamide],2000 to 10000 nM
2,COc1cc(C(=O)N[C@H]2C[C@H]3CC[C@@H](C2)N3c2ccc(C(N)=O)cn2)ccc1CO [6-[3-endo-({[4-(hydroxymethyl)-3-(methyloxy)phenyl]carbonyl}amino)-8-azabicyclo[3.2.1]oct-8-yl]pyridine-3-carboxamide],500 to 999 nM
3,C[C@H](NC(=O)c1ccc(N2C3CCC2CC(NC(=O)c2cccc(N[C@H]4CC[C@H](O)CC4)c2)C3)nc1)c1ccc(N2CCN(C)CC2)cc1 (stereo partly drawn) [6-{3-endo-[({3-[(4-hydroxycyclohexyl)amino]phenyl}carbonyl)amino]-8-azabicyclo[3.2.1]oct-8-yl}-N-{(1S)-1-[4-(4-methylpiperazin-1-yl)phenyl]ethyl}pyridine-3-carboxamide],2000 to 10000 nM
4,N=C(N)c1ccc(C(=O)N[C@H]2C[C@H]3CC[C@@H](C2)N3c2ccc(C(=O)NCc3ccccc3)cn2)cc1 [6-{3-endo-[({4-[amino(imino)methyl]phenyl}carbonyl)amino]-8-azabicyclo[3.2.1]oct-8-yl}-N-(phenylmethyl)pyridine-3-carboxamide],2000 to 10000 nM
5,COc1ccc([C@H](NC(=O)c2ccc(N3C4CCC3CC(NC(=O)c3cccc(OC)c3C)C4)nc2)C(=O)O)cc1 (stereo partly drawn) [(2S)-[({6-[3-endo-({[2-methyl-3-(methyloxy)phenyl]carbonyl}amino)-8-azabicyclo[3.2.1]oct-8-yl]pyridin-3-yl}carbonyl)amino][4-(methyloxy)phenyl]ethanoic acid],1000 to 2000 nM
6,"NC(=O)c1ccc(C(=O)NC2CC3CCC(C2)N3c2ccc(C(=O)NC3CCCC3)cn2)cc1NCC1CC1 (stereo not drawn) [N4-(8-{5-[(cyclopentylamino)carbonyl]pyridin-2-yl}-8-azabicyclo[3.2.1]oct-3-endo-yl)-2-[(cyclopropylmethyl)amino]benzene-1,4-dicarboxamide]",< 500 nM
7,"C[C@H](NC(=O)c1ccc(N2[C@@H]3CC[C@H]2C[C@@H](NC(=O)c2ccc(C(N)=O)c(NC4CCN(S(C)(=O)=O)CC4)c2)C3)nc1)c1ccc(N2CCN(C)CC2)cc1 [N4-(8-{5-[({(1S)-1-[4-(4-methylpiperazin-1-yl)phenyl]ethyl}amino)carbonyl]pyridin-n-2-yl}-8-azabicyclo[3.2.1]oct-3-endo-yl)-2-{[1-(methylsulfonyl)piperidin-4-yl]amino}benzene-1,4-dicarboxamide]",< 500 nM
8,"CC(=O)c1ccc(N2[C@@H]3CC[C@H]2C[C@@H](NC(=O)c2ccc(C(N)=O)c(NCC(C)(C)C)c2)C3)nc1 [N4-[8-(5-acetylpyridin-2-y)-8-azabicyclo[3.2.1]oct-3-endo-yl]-2-[(2,2-dimethylpropyl)amino]benzene-1,4-dicarboxamide]",< 500 nM
9,"CCC(C)Nc1cc(C(=O)N[C@H]2C[C@H]3CC[C@@H](C2)N3c2ccc(C(C)=O)cn2)ccc1C(N)=O (stereo partly drawn) [N4-[8-(5-acetylpyridin-2-yl)-8-azabicyclo[3.2.1]oct-3-endo-yl]-2-((1-methylpropyl)amino]benzene-1,4-dicarboxamide]",< 500 nM
10,"CCCCNc1cc(C(=O)N[C@H]2C[C@H]3CC[C@@H](C2)N3c2ccc(C(C)=O)cn2)ccc1C(N)=O [N4-[8-(5-acetylpyridin-2-yl)-8-azabicyclo[3.2.1]oct-3-endo-yl]-2-(butylamino)benzene-1,4-dicarboxamide]",< 500 nM
11,"CC(=O)c1ccc(N2[C@@H]3CC[C@H]2C[C@@H](NC(=O)c2ccc(C(N)=O)c(NC4CCCC4)c2)C3)nc1 [N4-[8-(5-acetylpyridin-2-yl)-8-azabicyclo[3.2.1]oct-3-endo-yl]-2-(cyclopentylamino)benzene-1,4-dicarboxamide]",< 500 nM
12,"CC(=O)c1ccc(N2[C@@H]3CC[C@H]2C[C@@H](NC(=O)c2ccc(C(N)=O)c(NC4CC4)c2)C3)nc1 [N4-[8-(5-acetylpyridin-2-yl)-8-azabicyclo[3.2.1]oct-3-endo-yl]-2-(cyclopropylamino)benzene-1,4-dicarboxamide]",< 500 nM
13,"CC(=O)c1ccc(N2[C@@H]3CC[C@H]2C[C@@H](NC(=O)c2ccc(C(N)=O)c(NC4CCCCC4)c2)C3)nc1 [N4-[8-(5-acetylpyridin-2-yl)-8-azabicyclo[3.2.1]oct-3-endo-yl]-2-(cyctohexylamino)benzene-1,4-dicarboxamide]",< 500 nM
14,"CCNc1cc(C(=O)N[C@H]2C[C@H]3CC[C@@H](C2)N3c2ccc(C(C)=O)cn2)ccc1C(N)=O [N4-[8-(5-acetylpyridin-2-yl)-8-azabicyclo[3.2.1]oct-3-endo-yl]-2-(ethylamino)benzene-1,4-dicarboxamide]",< 500 nM
15,"CC(=O)c1ccc(N2[C@@H]3CC[C@H]2C[C@@H](NC(=O)c2ccc(C(N)=O)c(Nc4ccccc4)c2)C3)nc1 [N4-[8-(5-acetylpyridin-2-yl)-8-azabicyclo[3.2.1]oct-3-endo-yl]-2-(phenylamino)benzene-1,4-dicarboxamide]",< 500 nM
16,"CC(=O)c1ccc(N2[C@@H]3CC[C@H]2C[C@@H](NC(=O)c2ccc(C(N)=O)c(NN4CCCCC4)c2)C3)nc1 [N4-[8-(5-acetylpyridin-2-yl)-8-azabicyclo[3.2.1]oct-3-endo-yl]-2-(piperidin-1-ylamino)benzene-1,4-dicarboxamide]",< 500 nM

# Now from value to compound:
row,IC50,Compound
1,< 500 nM,Cc1cc(CO)ccc1C(=O)N[C@H]1C[C@H]2CC[C@@H](C1)N2c1ccc(C(=O)NCc2ccccc2)cn1 [6-[3-endo-({[4-(hydroxymethyl)-2-methylphenyl]carbonyl}amino)-8-azabicyclo[3.2.1]oct-8-yl]-N-(phenylmethyl)pyridine-3-carboxamide]
2,< 500 nM,Cc1cc(CO)ccc1C(=O)N[C@H]1C[C@H]2CC[C@@H](C1)N2c1ccc(C(=O)NCc2cccnc2)cn1 [6-[3-endo-({[4-(hydroxymethyl)-2-methylphenyl]carbonyl}amino)-8-azabicyclo[3.2.1]oct-8-yl]-N-(pyridin-3-ylmethyl)pyridine-3-carboxamide]
3,< 500 nM,O=C(NCc1ccccc1)c1ccc(N2[C@@H]3CC[C@H]2C[C@@H](NC(=O)c2ccc(CO)cc2)C3)nc1 [6-[3-endo-({[4-(hydroxymethyl)phenyl]carbonyl}amino)-8-azabicyclo[3.2.1]oct-8-yl]-N-(phenylmethyl)pyridine-3-carboxamide]
4,< 500 nM,O=C(NCc1cccnc1)c1ccc(N2[C@@H]3CC[C@H]2C[C@@H](NC(=O)c2ccc(CO)cc2)C3)nc1 [6-[3-endo-({[4-(hydroxymethyl)phenyl]carbonyl}amino)-8-azabicyclo[3.2.1]oct-8-yl]-N-(pyridin-3-ylmethyl)pyridine-3-carboxamide]
5,< 500 nM,Cc1cnc(CNC(=O)c2ccc(N3[C@@H]4CC[C@H]3C[C@@H](NC(=O)c3ccc(CO)cc3)C4)nc2)cn1 [6-[3-endo-({[4-(hydroxymethyl)phenyl]carbonyl}amino)-8-azabicyclo[3.2.1]oct-8-yl]-N-[(5-methylpyrazin-2-yl)methyl]pyridine-3-carboxamide]
6,< 500 nM,NC(=O)c1ccc(N2[C@@H]3CC[C@H]2C[C@@H](NC(=O)c2ccc(CO)cc2)C3)nc1 [6-[3-endo-({[4-(hydroxymethyl)phenyl]carbonyl}amino)-8-azabicyclo[3.2.1]oct-8-yl]pyridine-3-carboxamide]
7,< 500 nM,"CCC(COC)Nc1cc(C(=O)N[C@H]2C[C@H]3CC[C@@H](C2)N3c2ccc(C(C)=O)cn2)ccc1C(N)=O (stereo partly drawn) [N4-(8-(5-acetylpyridin-2-yl)-8-azabicyclo[3.2.1]oct-3-endo-yl]-2-({1-[(methyloxy)methyl]propyl}amino) benzene-1,4-dicarboxamide]"
8,< 500 nM,"CC(=O)c1ccc(N2[C@@H]3CC[C@H]2C[C@@H](NC(=O)c2ccc(C(N)=O)c(NCC4CCCNC4)c2)C3)nc1 (stereo partly drawn) [N4-(8-(5-acetylpyridin-2-yl)-8-azabicyclo[3.2.1]oct-3-endo-yl]-2-[(piperidin-3-ylmethyl)amino]benzene-1,4-dicarboxamide]"
9,< 500 nM,"CC(C)[C@@H](C)Nc1cc(C(=O)NC2CC3CCC(C2)N3c2ccc(C(=O)C3CC3)cn2)ccc1C(N)=O (stereo partly drawn) [N4-(8-[5-(cyclopropylcarbonyl)pyridin-2-yl]-8-azabicyclo[3.2.1]oct-3-endo-yl)-2-{[(1R)-1,2-dimethylpropyl]amino}benzene-1,4-dicarboxamide]"
10,< 500 nM,"NC(=O)c1ccc(C(=O)NC2CC3CCC(C2)N3c2ccc(C(=O)NC3CCCC3)cn2)cc1N[C@H]1CC[C@H](O)CC1 (stereo partly drawn) [N4-(8-{5-((cyclopentylamino)carbonyl]pyridin-2-yl}-8-azabicyclo[3.2.1]oct-3-endo-yl)-2-[(4-trans-hydroxycyclohexyl)amino]benzene-1,4-dicarboxamide]"
11,< 500 nM,"CS(=O)(=O)CCNc1cc(C(=O)N[C@H]2C[C@H]3CC[C@@H](C2)N3c2ccc(C(=O)NC3CCCC3)cn2)ccc1C(N)=O [N4-(8-{5-[(cyclopentylamino)carbonyl]pyridin-2-yl}-8-azabicyclo[3.2.1]oct-3-endo-yl)-2-{[2-(methylsulfonyl)ethyl]amino}benzene-1,4-dicarboxamide]"
12,< 500 nM,"C[C@H](NC(=O)c1ccc(N2C3CCC2CC(NC(=O)c2ccc(C(N)=O)c(NCCN4CCOCC4)c2)C3)nc1)c1ccc(N2CCN(C)CC2)cc1 (stereo partly drawn) [N4-(8-{5-[({(1S)-1-[4-(4-methylpiperazin-1-yl)phenyl]ethyl}amino)carbonyl]pyridin-2-yl}-8-azabicyclo[3.2.1]oct-3-endo-yl)-2-[(2-morpholin-4-ylethyl)amino]benzene-1,4-dicarboxamide]"
13,< 500 nM,"C[C@H](NC(=O)c1ccc(N2C3CCC2CC(NC(=O)c2ccc(C(N)=O)c(NCCS(C)(=O)=O)c2)C3)nc1)c1ccc(N2CCN(C)CC2)cc1 (stereo partly drawn) [N4-(8-{5-[({(1S)-1-[4-(4-methylpiperazin-1-yl)phenyl]ethyl}amino)carbonyl]pyridin-2-yl}-8-azabicyclo[3.2.1]oct-3-endo-yl)-2-{[2-(methylsulfonyl)ethyl]amino}benzene-1,4-dicarboxamide]"
14,< 500 nM,"COc1cc(Nc2cc(C(=O)NC3CC4CCC(C3)N4c3ccc(C(=O)N[C@@H](C)c4ccc(N5CCN(C)CC5)cc4)cn3)ccc2C(N)=O)cc(OC)c1OC (stereo partly drawn) [N4-(8-{5-[({(1S)-1-[4-(4-methylpiperazin-1-yl)phenyl]ethyl}amino)carbonyl]pyridin-2-yl}-8-azabicyclo[3.2.1]oct-3-endo-yl)-2-{[3,4,5-tris(methyloxy)phenyl]amino}benzene-1,4-dicarboxamide]"
